In publication PMC10881971, “Hepa-ToxMOA: a pathway-screening method for evaluating cellular stress and hepatic metabolic-dependent toxicity of natural products” (Scientific Reports, 2024):
Where a name gives a salt, the structure may show the parent alone. Read-outs that look alike come from different tables or passages of the source.

Experiments:
[1] = tested on: AP1, P53, Nrf2, and NF-κB
CYP3A4 = conditions: cited from earlier work
CYP3A5 = tested on: CYP3A5; set-up: method as in doi:10.1016/j.ccr.2020.213600; conditions: cited from earlier work
[2] = under metabolic activation (S9+, 1% rat liver S9), 24 h
[3] = without metabolic activation (S9-), 24 h
[4] = regardless of metabolic activation (S9- and S9+), 24 h

| Structure (SMILES) | Toxic (natural products exceeding Score 3, Venn diagram list Fig. 3c) [1] | sum of activity scores compared between metabolic activation and non-metabolic conditions [1] | Toxic (natural products exceeding Score 3, Venn diagram list Fig. 3c) ([1]; human) | also measured |
| --- | --- | --- | --- | --- |
| COc1cc2c3c(c1OC)-c1ccccc1C[C@H]3NCC2 [N-nornuciferine] | Common | consistently active regardless of metabolic activation |  | active (increased GFP intensity) for all Hepa-ToxMOA cell lines (Fig. 3d) [1]: commonly active; GFP expression, NF-κB cell line (NF-κB): increased GFP expression; GFP expression, Nrf2 cell line (Nrf2): induced GFP expression; GFP expression, P53 cell line (P53): no change; increase of GFP expression, P53 cell line (P53): up to 1.5 fold |
| C[C@@H]1O[C@@H](O[C@H]2[C@H](OC(=O)[C@]34CCC(C)(C)C[C@H]3C3=CC[C@@H]5[C@@]6(C)C[C@H](O)[C@H](O[C@@H]7O[C@H](CO)[C@@H](O)[C@H](O)[C@H]7O)C(CO)(CO)[C@@H]6CC[C@@]5(C)[C@]3(C)C[C@H]4O)OC[C@H](O)[C@@H]2O)[C@H](O)[C@H](O)[C@H]1O[C@@H]1OC[C@@H](O)[C@H](O[C@@H]2OC[C@](O)(CO)[C@H]2O)[C@H]1O [Platycodin D] |  | more active under metabolic activation | S9+ only |  |
| C[C@@H]1O[C@@H](O[C@H]2[C@H](OC(=O)[C@]34CCC(C)(C)C[C@H]3C3=CC[C@@H]5[C@@]6(C)C[C@H](O)[C@H](O[C@@H]7O[C@H](CO)[C@@H](O)[C@H](O[C@@H]8O[C@H](CO)[C@@H](O)[C@H](O)[C@H]8O)[C@H]7O)C(CO)(CO)[C@@H]6CC[C@@]5(C)[C@]3(C)C[C@H]4O)OC[C@H](O)[C@@H]2O)[C@H](O)[C@H](O)[C@H]1O[C@@H]1OC[C@@H](O)[C@H](O[C@@H]2OC[C@](O)(CO)[C@H]2O)[C@H]1O [Platycodin D2] |  | more active without metabolic activation | S9- only |  |
| CC(=O)O[C@H]1[C@H]2O[C@]23[C@@H]2CC[C@]4(O)C[C@@H](O)CC[C@]4(C)[C@H]2CC[C@]3(C)[C@H]1c1ccc(=O)oc1 [Cinobufotalin] |  | more active without metabolic activation | S9- only |  |
| CC[C@]1(O)C[C@H]2CN(CCc3c([nH]c4ccccc34)[C@@](C(=O)OC)(c3cc4c(cc3OC)N(C=O)[C@H]3[C@@](O)(C(=O)OC)[C@H](OC(C)=O)[C@]5(CC)C=CCN6CC[C@]43[C@@H]65)C2)C1 [Vincristine, reference compound] |  | more active under metabolic activation | S9+ only | active (increased GFP intensity) for all Hepa-ToxMOA cell lines (Fig. 3d) [1]: commonly active |
| COc1c(O)cc2oc3cc(O)c(CC=C(C)C)c(O)c3c(=O)c2c1CC=C(C)C [alpha-Mangostin] | S9+ only | more active under metabolic activation |  |  |
| COc1cc([C@@H]2c3cc4c(cc3[C@H](O)[C@H]3COC(=O)[C@H]23)OCO4)cc(OC)c1OC [Podophyllotoxin, reference compound] | Common | consistently active regardless of metabolic activation |  | GFP expression, AP1 cell line (AP1; [2]): did not respond; GFP expression, AP1 cell line (AP1; [3]): specifically induced GFP expression |
| COc1cc([C@@H]2c3cc4c(cc3[C@H](O)[C@H]3COC(=O)[C@@H]23)OCO4)cc(OC)c1OC [Picropodophyllotoxin] |  |  |  | GFP expression, AP1 cell line (AP1; [2]): did not respond; GFP expression, AP1 cell line (AP1; [3]): specifically induced GFP expression |
| CC(C)=CCc1c(O)cc2oc3cc(O)c(O)c(CCC(C)(C)O)c3c(=O)c2c1O [Garcinone C] | S9+ only | more active under metabolic activation |  |  |
| CC(=O)O[C@H]1[C@H]2O[C@]23[C@@H]2CC[C@@H]4C[C@@H](O)CC[C@]4(C)[C@H]2CC[C@]3(C)[C@H]1c1ccc(=O)oc1 [Cinobufagin] | Common | consistently active regardless of metabolic activation |  | substrate of CYP3A4 (CYP3A4): substrates; active (increased GFP intensity) for all Hepa-ToxMOA cell lines (Fig. 3d) [1]: commonly active; substrate of CYP3A5 (CYP3A5): substrates; GFP expression, P53 cell line (P53): increased |
| C[C@]12CC[C@H](O)C[C@H]1CC[C@@H]1[C@@H]2[C@H](O)C(=O)[C@]2(C)[C@@H](c3ccc(=O)oc3)CC[C@]12O [Arenobufagin] | S9- only | more active without metabolic activation |  | GFP expression, AP1 cell line (AP1; [2]): did not respond; GFP expression, AP1 cell line (AP1; [3]): specifically induced GFP expression |
| C[C@@H]1CC[C@@]2(OC1)O[C@H]1C[C@H]3[C@@H]4CC=C5C[C@@H](O)C[C@@H](O[C@@H]6O[C@H](C)[C@H](O)[C@H](O)[C@H]6O[C@@H]6O[C@@H](C)[C@H](O)[C@@H](O)[C@H]6O)[C@]5(C)[C@H]4CC[C@]3(C)[C@H]1[C@@H]2C [Ophiopogonin B] |  | did not show a response |  |  |
| C[C@]12CC[C@H](O)C[C@H]1CC[C@@H]1[C@@H]2CC[C@]2(C)[C@@H](c3ccc(=O)oc3)CC[C@]12O [Bufalin] |  | more active under metabolic activation | S9+ only | GFP expression, AP1 cell line (AP1; [2]): did not respond; GFP expression, AP1 cell line (AP1; [3]): specifically induced GFP expression |
| C[C@]12CC[C@H](O)C[C@@]1(O)CC[C@@H]1[C@@H]2CC[C@]2(C)[C@@H](c3ccc(=O)oc3)CC[C@]12O [Telocinobufagin] |  | more active without metabolic activation | S9- only |  |
| CC[C@@]1(O)C(=O)OCc2c1cc1n(c2=O)Cc2cc3cc(O)ccc3nc2-1 [10-Hydroxycamptothecin] | Common | consistently active regardless of metabolic activation |  | GFP intensity, AP1 cell line (AP1; [4]): increased |
| CC[C@@]1(O)C(=O)OCc2c1cc1n(c2=O)Cc2cc3c(OC)cccc3nc2-1 [9-Methoxycamptothecin] |  |  |  | GFP expression, NF-κB cell line (NF-κB; [4]): increased GFP expression |
| CO[C@H]1C[C@H](O[C@H]2CC[C@]3(C)[C@H]4CC[C@]5(C)[C@@H](C6=CC(=O)OC6)CC[C@]5(O)[C@@H]4CC[C@]3(O)C2)O[C@H](C)[C@H]1O[C@@H]1O[C@H](CO)[C@@H](O)[C@H](O)[C@H]1O [Periplocoside] |  |  |  | GFP expression, AP1 cell line (AP1; [2]): did not respond; GFP expression, AP1 cell line (AP1; [3]): specifically induced GFP expression |
| C[C@]12CC[C@H](O)C[C@H]1CC[C@@H]1[C@@H]2[C@H](O)C[C@]2(C)[C@@H](c3ccc(=O)oc3)CC[C@]12O [Gamabufotalin] |  | more active without metabolic activation | S9- only | GFP expression, P53 cell line (P53): increased |
| CC[C@]1(O)C[C@@H]2CN(CCc3c([nH]c4ccccc34)[C@@](C(=O)OC)(c3cc4c(cc3OC)N(C)[C@H]3[C@@](O)(C(=O)OC)[C@H](OC(C)=O)[C@]5(CC)C=CCN6CC[C@]43[C@@H]65)C2)C1 [Vinblastine sulfate, reference compound] |  | more active under metabolic activation | S9+ only |  |
| CO[C@]1(CC[C@@H](C)CO[C@@H]2O[C@H](CO)[C@@H](O)[C@H](O)[C@H]2O)O[C@H]2C[C@H]3[C@@H]4CC=C5C[C@@H](O[C@@H]6O[C@H](CO)[C@@H](O[C@@H]7O[C@@H](C)[C@H](O)[C@@H](O)[C@H]7O)[C@H](O)[C@H]6O[C@@H]6O[C@@H](C)[C@H](O)[C@@H](O)[C@H]6O)CC[C@]5(C)[C@H]4CC[C@]3(C)[C@H]2[C@@H]1C [Methyl protodioscin] |  |  |  | GFP intensity, AP1 cell line (AP1): increased |
| C[C@]12CC[C@H](O)C[C@H]1CC[C@@H]1[C@@H]2CC[C@]2(C)[C@@H](c3ccc(=O)oc3)C[C@H]3O[C@]132 [Bufogenin] | Common | consistently active regardless of metabolic activation |  | active (increased GFP intensity) for all Hepa-ToxMOA cell lines (Fig. 3d) [1]: commonly active; GFP expression, AP1 cell line (AP1; [2]): did not respond; GFP expression, AP1 cell line (AP1; [3]): specifically induced GFP expression; GFP expression, P53 cell line (P53): increased |
| CC1=C(O)C(=O)C=C2C1=CC=C1[C@@]2(C)CC[C@@]2(C)[C@@H]3C[C@](C)(C(=O)O)CC[C@]3(C)CC[C@]12C [Celastrol] |  | more active under metabolic activation | S9+ only |  |
| O=C(C[C@@H]1NCCC[C@H]1O)Cn1cnc2ccccc2c1=O [beta-dichroine, beta-febrifugine (beta-dichroine)] |  | did not show a response |  |  |
| C[C@@]1(C(=O)O)CC[C@]2(C)CC[C@]3(C)C4=CC(=O)c5c(cc(O)c(O)c5C=O)[C@]4(C)CC[C@@]3(C)[C@@H]2C1 [Demethylzeylasteral] |  | did not show a response |  |  |
| CCc1c2c(nc3ccc(O)cc13)-c1cc3c(c(=O)n1C2)COC(=O)[C@]3(O)CC [7-Ethyl-10-Hydroxycamptothecin] |  |  |  | GFP intensity, AP1 cell line (AP1): increased |
